Key:
[1] = tested on: hexokinase; test: Hexokinase assay on mouse hybridoma cell extract with/without trehalose-6-phosphate; type: biochemical; conditions: for V2 (ODU/min): hexokinase rate with T6P
Experimental: Hexokinase activity was measured in an assay containing 0.1 M Hepes-KOH pH 7.0, 4 mM MgCl2, 5 mM ATP, 0.2 mM NADP^+, 10 U/ml Creatine Phosphate Kinase (dissolved in 50% glycerol, 0.1% BSA, 50 mM Hepes pH 7.0), 3.5 mM Creatine Phosphate, 7 U/ml Glucose-6-Phosphate Dehydrogenase and 2 mM Glucose by measuring the increase in OD at 340 nm at 25° C.
When 2 mM Fructose was used instead of glucose as substrate for the hexokinase reaction, 3.8 U/ml Phosphoglucose Isomerase was included. Alternatively, a hexokinase assay as described by Gancedo et al. (1977) J. Biol. Chem. 252, 4443 was used.
A hexokinase assay was performed using glucose or fructose as substrate under conditions as described by Gancedo et al. (see above). Mouse hybridoma cells were subjected to osmotic shock by exposing a cell pellet to 20% sucrose, followed by distilled water. This crude protein extract was used in the hexokinase assay (50 μl) extract corresponding to ca. 200 μg protein).

[2] = tested on: potato microtubers; test: Trehalose accumulation in potato microtubers induced on medium with Validamycin A; type: in vivo, Solanum tuberosum cv. Kardal; conditions: for Trehalose (% fresh weight): +Validamycin A 10^−3 M
Experimental: Stem segments of in vitro potato plants harbouring an auxiliary meristem were transferred to micro-tuber inducing medium. Micro-tuber inducing medium contains 1 X MS-salts supplemented with R3 vitamins, 0.5 g/l MES (final pH=5.8, adjusted with KOH) and solidified with 8 g/l Daichin agar, 60 g/l sucrose and 2.5 mg/l kinetin. After 3 to 5 weeks of growth in the dark at 24° C., micro-tubers were formed.
(§1) Validamycin A was isolated from Solacol, a commercial agricultural formulation (Takeda Chem. Indust., Tokyo) as described by Kendall et al. (1990) Phytochemistry 29, 2525. The procedure involves ion-exchange chromatography (QAE-Sephadex A-25 (Pharmacia), bed vol. 10 ml, equilibration buffer 0.2 mM Na-Pi pH 7) from a 3% agricultural formulation of Solacol. Loading 1 ml of Solacol on the column and eluting with water in 7 fractions, practically all Validamycin was recovered in fraction 4. Based on a 100% recovery, using this procedure, the concentration of Validamycin A was adjusted to 1.10^−3 M in MS-medium, for use in trehalose accumulation tests. Alternatively, Validamycin A and B may be purified directly from Streptomyces hygroscopicus var. limoneus, as described by Iwasa et al. (1971) J. Antibiot. 24, 119, the content of which is incorporated herein by reference.
Carbohydrates were determined quantitatively by anion exchange chromatography with pulsed electrochemical detection. Extracts were prepared by extracting homogenized frozen material with 80% EtOH. After extraction for 15 minutes at room temperature, the soluble fraction is evaporated and dissolved in distilled water. Samples (25 μl) were analyzed on a Dionex DX-300 liquid chromatograph equipped with a 4×250 mm Dionex 35391 carbopac PA-1 column and a 4×50 mm Dionex 43096 carbopac PA-1 precolumn. Elution was with 100 mM NaOH at 1 ml/min followed by a NaAc gradient. Sugars were detected with a pulsed electrochemical detector (Dionex, PED). Commercially available carbohydrates (Sigma) were used as a standard.
Potato Solanum tuberosum cv. […] The presence of small amounts of trehalose in wild-type plants indicates the presence of a functional trehalose biosynthetic pathway.
Evidence for the presence of a trehalose biosynthesis pathway in tobacco was obtained by culturing wild-type plants in the presence of 10^−3M of the trehalase inhibitor Validamycin A. The treated plants accumulated very small amounts of trehalose, up to 0.0021% (fw). Trehalose accumulation was never detected in any control plants cultured without inhibitor. Similar data were obtained with wild-type microtubers cultured in the presence of Validamycin A. Ten out of seventeen lines accumulated on average 0.001% trehalose (fw)/(Table 4).

[3] = tested on: wild-type tobacco plants; test: Trehalose accumulation in wild-type tobacco plants cultured with Validamycin A; type: in vivo; conditions: wild-type tobacco plants cultured with 10^−3M Validamycin A
Experimental: as §1, with “1.10^-3” for “1.10^−3”, “reference. Carbohydrates were determined quantitatively by anion exchange chromatography with pulsed electrochemical detection. […] Samples (25 μl) were analyzed on a Dionex DX-300 liquid chromatograph equipped with a 4×250 mm Dionex 35391 carbopac PA-1 column and a 4×50 mm Dionex 43096 carbopac PA-1 precolumn. […] Sugars were detected with a pulsed electrochemical detector (Dionex, PED). […] Trehalose accumulation was never detected in any control plants cultured without inhibitor. […]” for “reference.”

[4] = tested on: trehalases from various sources; conditions: cited from earlier work
[5] = tested on: α- or β-glycohydrolase; conditions: except for trehalase; cited from earlier work
[6] = substrate Fructose 20 mM, T6P 0.23
[7] = substrate Fructose 20 mM, T6P 0.43
[8] = substrate Fructose 20 mM, T6P 0.83
[9] = substrate Fructose 20 mM, T6P 1.67
[10] = substrate Glucose 2 mM, T6P 0.83
[11] = substrate Glucose 20 mM, T6P 0.83
[12] = substrate Glucose 100 mM, T6P 0.83

O=P(O)(O)OC[C@H]1O[C@H](O[C@H]2O[C@H](CO)[C@@H](O)[C@H](O)[C@H]2O)[C@H](O)[C@@H](O)[C@@H]1O [T-6-P, trehalose-6-phosphate]
Hexokinase activity in mouse cell extracts ([1]; crude extract of mouse hybridoma cells): is inhibited | V2 (ODU/min) [1, 6]: 0.0205 ODU/min | V2 (ODU/min) [1, 7]: 0.0197 ODU/min | V2 (ODU/min) [1, 8]: 0.0151 ODU/min | V2 (ODU/min) [1, 9]: 0.0133 ODU/min | V2 (ODU/min) [1, 10]: 0.0133 ODU/min | V2 (ODU/min) [1, 11]: 0.0141 ODU/min | V2 (ODU/min) [1, 12]: 0.0125 ODU/min | Efficiency of hexokinase inhibition, glucose versus fructose as substrate ([1]; mouse cell extracts): No difference | Inhibition (%) [1, 6]: 1% | Inhibition (%) [1, 7]: 26% | Inhibition (%) [1, 8]: 35% | Inhibition (%) [1, 9]: 46% | Inhibition (%) [1, 10]: 35% | Inhibition (%) [1, 11]: 35% | Inhibition (%) [1, 12]: 34%

OCC1=C[C@@H](N[C@H]2C[C@H](CO)[C@@H](O[C@H]3O[C@@H](CO)[C@H](O)[C@@H](O)[C@@H]3O)[C@H](O)[C@H]2O)[C@H](O)[C@@H](O)[C@@H]1O [Validamycin A]
Trehalose (% fresh weight) ([2]; microtubers of pMOG845 line 845-2): 0.016 % fresh weight | Trehalose (% fresh weight) ([2]; microtubers of pMOG845 line 845-8): 0.051 % fresh weight | Trehalose (% fresh weight) ([2]; microtubers of pMOG845 line 845-11): 0.015 % fresh weight | Trehalose (% fresh weight) ([2]; microtubers of pMOG845 line 845-13): 0.011 % fresh weight | Trehalose (% fresh weight) ([2]; microtubers of pMOG845 line 845-22): 0.112 % fresh weight | Trehalose (% fresh weight) ([2]; microtubers of pMOG845 line 845-25): 0.002 % fresh weight | Trehalose (% fresh weight) ([2]; microtubers of pMOG845 line 845-28): 0.109 % fresh weight | Trehalose (% fresh weight) ([2]; microtubers of wild type Kardal): 0.001 % fresh weight | Trehalose level in microtubers versus medium without Validamycin A ([2]; transgenic (pMOG845) and wild-type microtubers, 10^−3 M Validamycin A): elevated levels of trehalose | Trehalose accumulation, average ([2]; wild-type microtubers cultured with Validamycin A, ten out of seventeen lines): 0.001 % trehalose (fw) | Trehalose accumulation [3]: up to 0.0021 % (fw) | IC50 [4]: 0.1 to 1000 nM | Inhibition of α- or β-glycohydrolase activity [5]: does not significantly inhibit

Source: patent publication US8124840B2, “Regulating metabolism by modifying the level of trehalose-6-phosphate” (Syngenta Mogen B.V., priority 1996, dated 2012)
